This is an account of results in paper PMC5130295, “Structural basis for the disaggregase activity and regulation of Hsp104” (eLife, 2016).

As usually defined, the stoichiometry N is the number of molecules, sites or subunits per partner or assembly.

The target of assay [1] is T1, CtHsp104 (Thermochaetoides thermophila, UniProt G0S4G4, D295A/E296A).
T1 construct: gene CTHT_0022720; full-length, synthetic gene, pET21a, C-terminal His6 tag, E. coli; NTD not visible in the crystal structure
As to the kind of experiment: X-ray crystal structure, […] Å. It is filed as binding. The following applies: ADP bound in AAA1 and AAA2 active sites; incubated with ADP and AlF3, 3 mM each; pH 5.8.

A further assay addresses T2, ScHsp104 (Saccharomyces cerevisiae, UniProt P31539).
T2 construct: gene HSP104; cloned from yeast genomic DNA, pET21a, C-terminal His6 tag, E. coli
As to the kind of experiment: coupled ATPase assay (pyruvate kinase / lactate dehydrogenase). It is filed as biochemical. The settings on record: 5 mM MgCl2; varying ATP; Hill fit.

In assay [2] the target is T3, CtHsp104 (Thermochaetoides thermophila, UniProt G0S4G4).
T3 construct: gene CTHT_0022720; full-length, synthetic gene, pET21a, C-terminal His6 tag, E. coli; NTD not visible in the crystal structure
Described as above. It is filed as biochemical. The following applies: 5 mM MgCl2; varying ATP; Hill fit.

Assay [3] concerns the target CtHsp104 double Walker B mutant (Chaetomium thermophilum). As to the kind of experiment: SEC; SEC profiles with elution volumes of marker proteins. (Size exclusion chromatography separates by hydrodynamic size, large species first.)
The target of assay [4] is Hsp104 disaggregase from Chaetomium thermophilum, wild type (Chaetomium thermophilum). Described as above.
The target of assay [5] is CtHsp104 catalytic inactive double Walker A mutant (Chaetomium thermophilum). The assay is described as above.

T1 sequence (G0S4G4 entry or part of it D295A/E296A): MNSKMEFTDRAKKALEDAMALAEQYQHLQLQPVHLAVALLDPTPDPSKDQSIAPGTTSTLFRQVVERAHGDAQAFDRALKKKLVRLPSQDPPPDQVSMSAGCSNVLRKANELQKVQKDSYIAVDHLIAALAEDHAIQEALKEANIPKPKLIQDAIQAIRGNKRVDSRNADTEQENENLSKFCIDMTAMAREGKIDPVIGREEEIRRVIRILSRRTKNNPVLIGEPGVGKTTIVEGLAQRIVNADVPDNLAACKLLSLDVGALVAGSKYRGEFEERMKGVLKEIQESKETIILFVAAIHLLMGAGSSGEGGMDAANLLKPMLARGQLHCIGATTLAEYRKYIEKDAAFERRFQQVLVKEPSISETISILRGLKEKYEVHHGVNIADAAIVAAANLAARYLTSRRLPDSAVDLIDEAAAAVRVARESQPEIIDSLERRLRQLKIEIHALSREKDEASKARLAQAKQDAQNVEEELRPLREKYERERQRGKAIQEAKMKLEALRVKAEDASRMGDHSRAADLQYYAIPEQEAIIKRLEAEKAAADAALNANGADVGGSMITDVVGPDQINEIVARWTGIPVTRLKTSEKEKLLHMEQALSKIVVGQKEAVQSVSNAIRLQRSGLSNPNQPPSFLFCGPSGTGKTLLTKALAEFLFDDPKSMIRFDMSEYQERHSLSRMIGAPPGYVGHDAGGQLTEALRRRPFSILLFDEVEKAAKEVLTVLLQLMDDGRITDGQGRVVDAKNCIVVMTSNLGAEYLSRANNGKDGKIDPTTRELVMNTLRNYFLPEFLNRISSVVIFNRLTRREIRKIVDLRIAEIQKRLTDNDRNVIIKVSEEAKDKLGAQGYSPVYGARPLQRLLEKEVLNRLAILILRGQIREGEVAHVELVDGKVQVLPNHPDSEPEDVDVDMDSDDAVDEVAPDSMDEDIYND
T3 sequence (G0S4G4 entry or part of it): as the sequence (G0S4G4 entry or part of it D295A/E296A) above, with A295D, A296E counted along it
T2 sequence (P31539 whole entry): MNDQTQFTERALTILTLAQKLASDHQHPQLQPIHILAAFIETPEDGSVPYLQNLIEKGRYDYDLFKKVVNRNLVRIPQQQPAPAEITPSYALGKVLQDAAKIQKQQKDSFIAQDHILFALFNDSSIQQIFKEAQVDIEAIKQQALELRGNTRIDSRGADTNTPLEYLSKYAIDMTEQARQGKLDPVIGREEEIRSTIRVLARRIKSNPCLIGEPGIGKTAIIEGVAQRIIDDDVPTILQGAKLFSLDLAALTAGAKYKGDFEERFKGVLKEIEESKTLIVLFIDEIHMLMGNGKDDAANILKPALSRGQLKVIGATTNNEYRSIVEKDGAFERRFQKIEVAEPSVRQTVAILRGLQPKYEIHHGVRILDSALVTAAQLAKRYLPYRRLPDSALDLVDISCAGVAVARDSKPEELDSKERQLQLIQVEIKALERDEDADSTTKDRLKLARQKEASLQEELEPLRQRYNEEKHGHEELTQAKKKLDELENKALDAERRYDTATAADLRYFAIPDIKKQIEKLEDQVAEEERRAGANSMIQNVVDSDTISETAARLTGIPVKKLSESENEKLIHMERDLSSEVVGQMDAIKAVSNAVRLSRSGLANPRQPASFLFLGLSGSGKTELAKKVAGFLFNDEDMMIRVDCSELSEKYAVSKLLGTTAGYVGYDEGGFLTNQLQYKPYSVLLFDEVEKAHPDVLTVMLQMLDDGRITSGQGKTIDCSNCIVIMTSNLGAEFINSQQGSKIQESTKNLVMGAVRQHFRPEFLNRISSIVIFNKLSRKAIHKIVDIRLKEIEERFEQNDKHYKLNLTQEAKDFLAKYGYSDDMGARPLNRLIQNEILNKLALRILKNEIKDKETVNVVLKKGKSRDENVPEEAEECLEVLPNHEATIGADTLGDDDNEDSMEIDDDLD

In the case of `Nc1ncnc2c1ncn2[C@@H]1O[C@H](COP(=O)(O)OP(=O)(O)O)[C@@H](O)[C@H]1O` [ADP], the “X-ray crystal structure, 3.7 Å” value at CtHsp104 [1] is recorded as “The crystal structure of the double Walker-B mutant in complex with ADP was determined”.
As to `Nc1ncnc2c1ncn2[C@@H]1O[C@H](COP(=O)(O)OP(=O)(O)OP(=O)(O)O)[C@@H](O)[C@H]1O` [ATP], the “coupled ATPase assay (pyruvate kinase / lactate dehydrogenase)” value was “ATPase and GFP unfolding activity of wt and ΔPS1 mutants of Ct and ScHsp104” at ScHsp104; “ATPase activity was determined by a coupled enzymatic reaction” on CtHsp104 [2].
Regarding “CtHsp104 double Walker B mutant (natural protein)”, the stoichiometry N in assay [3] worked out at 6.
Compound “Hsp104 disaggregase from Chaetomium thermophilum, wild type (natural protein)” had a stoichiometry N in assay [4] of 6.
As for “CtHsp104 catalytic inactive double Walker A mutant (natural protein)”, the stoichiometry N in assay [5] was 6.
